Where two headings read alike, the source gives them in different places.
How the values were obtained:
IN = system: IN; parameters: method as in PMID 15634005; details: cited from earlier work
HIV-1 = assay: MT-4 cell infectivity assay; format: cell-based; details: MT-4 cells
[1] = target: T1, human apurinic/apyrimidinic endonuclease 1 (APE1) (Homo sapiens, UniProt P27695); assay: APE1 inhibition assay; format: biochemical; details: for APE1 inhibition (in words): at 100 μM; for IC50: read-out: Inhibition of APE1 catalytic activity IC50
T1 construct: His; made in house
Method in brief: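 His-tagged APE1 (0.05 nM) preincubated with compound 10 min at 30 °C in MOPS pH 7.2 buffer with 7.5 mM MnCl2 and 10% DMSO, then 200 nM 5′-32P-labelled abasic (THF) duplex added for 10 min. Incision products resolved on denaturing gel, phosphorimaged; IC50 from %I versus log concentration.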

HIV-1 IN = target: T2, HIV-1 IN (Human immunodeficiency virus type 1 group M subtype B, UniProt P12497); assay: In vitro IN inhibition assay (3’-processing and strand transfer); format: biochemical
T2 construct: pre-incubated with purified recombinant IN (at a final concentration of 200 nM); made in house
Method in brief: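 Recombinant HIV-1 IN (200 nM) preincubated with compound 30 min at 30 °C in MnCl2-containing buffer (MgCl2 plus PEG for Mg2+ format), then 1 h with 20 nM 5'-32P-labeled 21-mer duplex. 3'-processing and strand-transfer products resolved on denaturing gels, phosphorimager-quantified; IC50 from log-concentration versus % inhibition.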

[2] = Mn2+ cofactor (7.5 mM MnCl2), read-out: Inhibition of IN catalytic activity IC50, 3’-Processing
[3] = Mn2+ cofactor (7.5 mM MnCl2), read-out: Inhibition of IN catalytic activity IC50, Strand Transfer

T1 sequence (P27695 whole entry): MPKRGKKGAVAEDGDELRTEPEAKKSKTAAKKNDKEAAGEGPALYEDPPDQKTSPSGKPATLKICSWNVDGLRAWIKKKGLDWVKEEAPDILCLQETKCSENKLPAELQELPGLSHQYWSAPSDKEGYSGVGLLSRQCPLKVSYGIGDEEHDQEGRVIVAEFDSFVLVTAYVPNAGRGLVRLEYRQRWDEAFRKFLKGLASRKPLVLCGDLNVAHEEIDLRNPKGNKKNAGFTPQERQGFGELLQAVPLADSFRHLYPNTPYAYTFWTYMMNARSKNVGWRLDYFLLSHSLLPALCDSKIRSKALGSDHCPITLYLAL

SMILES | IC50 (IN; read-out: IC50, 3’-processing) | IC50 (IN; read-out: IC50, strand transfer) | antiviral activity against HIV-1 (HIV-1) | melting point | APE1 inhibition (in words) [1] | IC50 [1] | IC50 (HIV-1 IN; [2]) | IC50 (HIV-1 IN; [3]) | selectivity for IN than APE1 (HIV-1 IN; IN versus APE1) | IC50 (HIV-1 IN; in the presence of Mg^2+ as the cofactor, read-out: Inhibition of IN catalytic activity IC50, 3’-Processing, Mg2+ (converted)) | IC50 (HIV-1 IN; in the presence of Mg^2+ as the cofactor, read-out: Inhibition of IN catalytic activity IC50, Strand Transfer, Mg2+ (converted))
O=C(O)c1ccc(N2C(=O)/C(=C/c3ccccc3)SC2=S)cc1 [Compound 1] | 15 µM | 11 µM |  |  |  |  |  |  |  |  | 
O=C(Nc1ccc(O)cc1)C(=S)NN1C(=O)C(=Cc2cc(N=Nc3ccccc3)ccc2O)SC1=S [Compound 48, N-(4-hydroxyphenyl)-2-[(5-{2-hydroxy-5-[(E)-phenyldiazenyl]benzylidene}-4-oxo-2-thioxo-1,3-thiaz-olidin-3-yl)amino]-2-thioxoacetamide] |  |  | did not show any significant antiviral activity | 145 to 146 °C | did not show any significant APE1 inhibition | > 100 µM | 17 ± 7 µM | 8 ± 2 µM |  |  | 
O=C(Nc1ccc(O)cc1)C(=S)NN1C(=O)C(=Cc2cc(Cl)cc(Cl)c2O)SC1=S [Compound 50, 2-{[5-(3,5-Dichloro-2-hydroxybenzylidene)-4-oxo-2-thioxo-1,3-thiazolidin-3-yl]amino}-N-(4-hydroxy-phenyl)-2-thioxoacetamide] |  |  |  | 217 to 218 °C |  | > 100 µM | 60 µM | 55 µM |  |  | 
O=C(Nc1ccc(O)cc1)C(=S)NN1C(=O)C(=Cc2cc(Br)cc(Br)c2O)SC1=S [Compound 51, 2-{[5-(3,5-Dibromo-2-hydroxybenzylidene)-4-oxo-2-thioxo-1,3-thiazolidin-3-yl]amino}-N-(4-hydroxy-phenyl)-2-thioxoacetamide] |  |  | did not show any significant antiviral activity | 189 to 190 °C | did not show any significant APE1 inhibition | > 100 µM | 28 ± 1 µM | 21 ± 7 µM |  |  | 
COc1cc(Br)cc(C=C2SC(=S)N(NC(=S)C(=O)Nc3ccc(O)cc3)C2=O)c1O [Compound 52, 2-{[5-(5-Bromo-2-hydroxy-3-methoxybenzylidene)-4-oxo-2-thioxo-1,3-thiazolidin-3-yl]amino}-N-(4-hydroxyphenyl)-2-thioxoacetamide] |  |  |  | 176 to 177 °C |  | > 100 µM | 38 ± 27 µM | 23 ± 9 µM |  |  | 
O=C(Nc1ccc(O)cc1)C(=S)NN1C(=O)C(=Cc2cc(I)cc(I)c2O)SC1=S [Compound 53, 2-{[5-(2-Hydroxy-3,5-diiodobenzylidene)-4-oxo-2-thioxo-1,3-thiazolidin-3-yl]amino}-N-(4-hydroxy-phenyl)-2-thioxoacetamide] |  |  | did not show any significant antiviral activity | 157 to 158 °C |  | 62 ± 3 µM | 7 ± 3 µM | 3 ± 2 µM | 20 fold | 12.5 µM | 11 µM

— article PMC6264390, “Design, Synthesis and Structure-activity Studies of Rhodanine Derivatives as HIV-1 Integrase Inhibitors” (Molecules, 2010)
